Source: PubChem BioAssay (NCI)
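In this assay, cells in 96-well plates receive the compound at five concentrations for 48 hours. Endpoints are linearly interpolated between the surrounding concentrations. The concentration for 50% growth inhibition is given as GI50. TGI is the concentration that stops growth completely.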

Experiments:
Assay in all cases: NCI tumour cell line growth inhibition, 48 h
CCRF-CEM leukemia = system: CCRF-CEM leukemia
DU-145 prostate = system: DU-145 prostate
MCF7 breast = system: MCF7 breast
NCI-H522 lung = system: NCI-H522 lung
NCI/ADR-RES ovarian = system: NCI/ADR-RES ovarian
OVCAR-4 ovarian = system: OVCAR-4 ovarian
SK-MEL-5 melanoma = system: SK-MEL-5 melanoma
SN12C renal = system: SN12C renal
TK-10 renal = system: TK-10 renal
UACC-62 melanoma = system: UACC-62 melanoma

Structure (SMILES) | GI50 (CCRF-CEM leukemia) [µM] | TGI (CCRF-CEM leukemia) [µM] | GI50 (DU-145 prostate) [µM] | TGI (DU-145 prostate) [µM] | GI50 (MCF7 breast) [µM] | TGI (MCF7 breast) [µM] | GI50 (NCI-H522 lung) [µM] | TGI (NCI-H522 lung) [µM] | GI50 (NCI/ADR-RES ovarian) [µM] | TGI (NCI/ADR-RES ovarian) [µM] | GI50 (OVCAR-4 ovarian) [µM] | TGI (OVCAR-4 ovarian) [µM] | GI50 (SK-MEL-5 melanoma) [µM] | TGI (SK-MEL-5 melanoma) [µM] | GI50 (SN12C renal) [µM] | TGI (SN12C renal) [µM] | GI50 (TK-10 renal) [µM] | TGI (TK-10 renal) [µM] | GI50 (UACC-62 melanoma) [µM] | TGI (UACC-62 melanoma) [µM]
COc1ccccc1CNCCCN1C(=O)c2ccc3c4c(ccc(c24)C1=O)C(=O)N(CCCNCCCCNCCCCN)C3=O | 0.756 | > 33.4 | 1.62 | 3.95 | 0.498 | 2.24 | 1.62 | 6.07 | 12.8 | > 100 | 0.346 | 1.4 | 0.822 | 2.23 | 1.99 | 5.9 | 3.71 | 51.7 | 1.53 | 3.66
CCCCCCCCCCCC1=NC(C)(C)CN1CCO | 3.54 | 18.4 | 10.2 | 21.9 | 2.41 | 6.09 | 4.57 | 13 | 13.9 | 29.5 | 7.45 | 21.5 | 12 | 25.1 | 9.95 | 24.8 | 10.8 | 28.9 | 1.97 | 4.41
CSC(=S)N/N=C/c1ccccc1 |  | > 100 |  | > 100 |  | > 100 |  | > 100 |  | > 100 |  | 98.5 |  | > 100 |  | > 100 |  | > 100 |  | > 100
CC(C)c1ccc2c(N=Nc3ccc(S(N)(=O)=O)cc3)c(O)[nH]c2c1 | > 25 | > 25 | 12.5 | > 25 | > 14.7 | > 25 | 7.08 | > 17.8 | > 13.5 | > 25 | > 25 | > 25 | 9.86 | > 25 | > 14.8 | > 25 | > 12.1 | > 24 | > 25 | > 25
C=C1C(=O)O[C@H]2[C@H]1CC/C(C=Nc1ccc(C(F)(F)F)cc1N)=C\CC[C@@]1(C)O[C@@H]21 | 3.16 | 11.2 | 3.21 | 13.1 | 3.06 | 16 | 2.43 | 7.8 | 8.09 | 45.2 | 4.44 | 20.6 | 13.5 | 26.7 | 10.1 | 26.6 | 6.14 | 17.4 | 2.91 | 15.6
COc1ccc2c(CC(=O)O)cc(=O)oc2c1 |  | > 100 |  | > 100 |  | > 100 |  | > 100 |  | > 100 |  | > 100 |  | > 100 |  | > 100 |  | > 100 |  | > 100
COc1ccc2nc3cccc([N+](=O)[O-])c3c(NCCN(CCO)CCO)c2c1 | 0.0326 | 0.247 | 0.014 | 0.717 | 0.0138 | 0.548 |  | 0.018 | 0.689 | 4.6 | 0.0222 | 0.0685 |  | 0.0175 | 0.0486 | 0.443 | 0.0307 | 0.229 | 0.0311 | 0.109
C#CC[C@@H]1C[C@]2(C)[C@H]3CC[C@@H]4[C@H]5[C@H](C(=C)C)CC[C@]5(C(=O)O)CC[C@@]4(C)[C@]3(C)CC[C@H]2C(C)(C)[C@H]1O | 2.36 | 9.02 | 3.23 | 10.8 |  |  | 2.95 | 12.3 | 2.03 | 5.24 | 1.93 | 3.83 | 2.27 | 5.58 | 2.98 | 11.6 | 1.85 | 4.44 | 2.64 | 9.84
COc1c(OC(C)=O)c(OC(C)=O)cc2c1-c1ccc(OC)c(=O)cc1C(NC(C)=O)CC2 (centres undefined) |  | > 100 |  | > 100 |  | > 100 |  | 0.0192 |  | 74.1 |  | > 100 |  | 0.0264 |  | > 100 |  | > 100 |  | > 100
CC1(C)CC[C@]2(C(=O)n3ccnc3)CC[C@]3(C)[C@H](C(=O)C=C4[C@@]5(C)C=C(C#N)C(=O)C(C)(C)[C@@H]5CC[C@]43C)[C@@H]2C1 | < 0.01 | 0.0438 | < 0.01 | 0.0174 | < 0.01 | > 100 | 0.0168 | 0.0585 | < 0.01 | 0.0895 | 0.0359 | 0.173 | 0.0923 | 0.262 | < 0.0177 | 0.0404 | < 0.0132 | < 0.0226 | < 0.014 | < 0.0336
C=C1C(=O)O[C@H]2[C@H]1CC/C(COC(=O)/C=C\C(=O)NCc1ccc(Cn3c(=O)sn(-c4ccc(OC)cc4)c3=O)cc1)=C\CC[C@@]1(C)O[C@@H]21 | 0.174 | 4.27 | 0.694 | 1.36 | 0.292 | 1.17 | 0.648 | 1.56 | 1.11 | 4.32 | 0.706 | 1.39 | 0.828 | 1.53 | 0.636 | 1.46 | 0.917 | 1.67 | 0.7 | 1.41
CCOC(=O)c1ccc2c(c1)[n+](=O)c(C(=O)c1ccc3ccccc3c1)c(C(F)(F)F)n2[O-] | 0.4 | 2.29 | 1.78 | 3.16 | 0.901 | 2.42 | 0.458 | 1.87 | 1.61 | 3.31 | 0.261 | 0.848 | 1.45 | 2.78 | 1.63 | 3.58 | 1.89 | 3.3 | 1.52 | 2.93
CC(C)(C)C(=O)OCOP(=O)(OCOC(=O)C(C)(C)C)C1CCCN(OC(=O)c2ccccc2)C1=O (centres undefined) | 0.643 | 29.7 | 2.62 | > 100 | 0.528 | 10.1 | 0.338 | 1.5 | 0.721 | 7.76 | 3.56 | > 100 | 0.983 | 3.28 | 0.337 | 7.19 | 2.16 | 23.2 | 1.09 | 2.99
Fc1ccc(CNc2c3ccccc3nc3ccccc23)cc1 | 3.12 | > 100 | 3.18 | 11.3 | 1.79 | 4.97 | 1.66 | 4.24 | 2.33 | 8.07 | 2.05 | 7.34 | 1.73 | 3.1 | 2.64 | 10.5 | 2.83 | 10.6 | 2.58 | 9.13
COc1cc(C2c3cc4c(cc3[C@H](NC(=O)c3cccs3)C3COC(=O)[C@H]23)OCO4)cc(OC)c1OC (some centres undefined) |  |  |  |  |  | 31.3 |  | 0.0213 |  | 0.459 |  |  |  | 0.708 |  | 19.5 |  | > 100 |  | > 100
C[As](C)Sc1ccnc(S[As](C)C)n1 | 1.34 |  | 5.98 | > 39.7 | 3.23 | > 35.1 | 0.918 | 27.8 | 7.72 | > 25.9 | 3.44 | 36.3 | 2.3 | 10.7 | 3.41 | 15.8 | 2.64 | 14.3 | 2.38 | 15.6
CCOCCc1c(O)nc(SC)[nH]c1=O | > 100 | > 100 | > 100 | > 100 | > 100 | > 100 | > 100 | > 100 | > 100 | > 100 | > 100 | > 100 | > 100 | > 100 | > 100 | > 100 | > 100 | > 100 | > 100 | > 100
COc1cc(-c2cc(/C=C/C(=O)c3ccc4c(c3)OCO4)[nH]n2)cc(OC)c1OC | 1.57 | 5.96 | 2.72 | 9.56 |  |  | 1.03 | 2.35 | 4.23 | > 100 | 3.8 | > 100 | 4.51 | > 100 | 3.94 | > 100 | 2.33 | 5.73 | 4.67 | > 100
CCOC(=O)C1c2[nH]c3ccccc3c2CCN1C(=O)c1ccco1 (centres undefined) |  | > 10 |  | > 10 |  | > 10 |  |  |  | > 10 |  | > 10 |  | > 10 |  | > 10 |  | > 10 |  | > 10
CN(C)CCCNC(=O)c1cc(NC(=O)CCNC(=O)c2ccc3c(c2)C(=O)c2ccccc2C3=O)cn1C | 64.1 | > 100 |  |  | 20.1 | 56.4 | > 100 | > 100 | > 100 | > 100 |  |  | > 100 | > 100 | > 100 | > 100 | > 100 | > 100 | > 100 | > 100
Cc1cc(Cl)ccc1NC(=O)/C(Cl)=C(/Cl)C(=O)O |  | > 100 |  | 61.4 |  | 50.5 |  | 32.7 |  | 74.2 |  |  |  | > 100 |  | 35 |  | 33.2 |  | 48.8
COc1ccc(-c2cn(-c3ccc(Cl)cc3)c(=S)[nH]2)cc1OC | > 100 | > 100 | 14 | > 100 | 4.77 | > 100 | 21.5 | > 100 | 5.3 | > 100 | 20.8 | > 100 | 2.92 | > 100 | 7.52 | > 100 | 12.1 | > 100 |  | 
O=C(CCc1nnc(-c2c(Cl)cccc2Cl)o1)c1nc2ccccc2[nH]1 | 4.86 | 66 | 17.8 | > 100 | 4.57 | > 100 |  |  | 5.47 | > 100 | 5.93 | > 100 | 2.88 | 14.9 | 6.22 | 56.9 | 16.4 | > 100 | 3.34 | 27.8
CC1(C)Cc2cccc(OCC(O)CN3CCN(c4ccc(F)cc4)CC3)c2O1 (centres undefined) |  |  | 24.1 | > 50 | 13.4 | 49.7 | 47.8 | > 50 | 12.2 | 45.6 | 13.3 | > 50 | 6.99 | 13.9 | 18.9 | > 50 | > 50 | > 50 | 11.6 | > 50
COC(=O)NNc1c([N+](=O)[O-])cnn(-c2ccccc2)c1=O |  | 1.55 |  | 16.9 |  | 18 |  | 2.6 |  |  |  | 3.85 |  | 8.36 |  | 3.49 |  | 32.5 |  | 5.15
O=C(c1ccccn1)c1nnn2ccccc12 |  | > 100 |  | > 100 |  | > 100 |  | > 100 |  |  |  | > 100 |  | > 100 |  | > 100 |  | > 100 |  | > 100
CCOc1cc(C=O)c2c(ccc3ccc(OC)c(OC)c32)c1OC |  | > 100 |  | > 100 |  |  |  | > 100 |  | 81.5 |  | > 100 |  | > 100 |  | > 100 |  | > 100 |  | > 100
COC1OCC(OS(=O)(=O)c2ccc(C)cc2)C(OC(=O)c2ccccc2)C1OC(=O)c1ccccc1 (centres undefined) | 4.74 | > 100 | 19.7 | > 100 | 3.01 | > 100 | 1.56 | 7.09 | 3.64 | > 100 | 9.24 | > 100 | 4.32 | > 100 |  |  | > 100 | > 100 | 3.48 | > 100
O=C(c1ccccc1)c1ccc(Cl)c([N+](=O)[O-])c1 | 3.18 | 13.5 | 3.69 | 11.7 | 2.56 | 9.74 | 1.41 | 6.18 | 21.3 | 58.3 | 1.73 | 3.13 | 14.7 | 28.3 | 3.81 | 14.8 |  |  |  | 
